Source: ChEMBL document CHEMBL4118129, “Evaluation of novel TGR5 agonist in combination with Sitagliptin for possible treatment of type 2 diabetes” (Bioorg Med Chem Lett, 2018)

Tests used:
Type in all cases: ADME, organism-based
[1] = Tmax in C57BL/6 mouse at 30 mg/kg, po by LC-MS/MS analysis; details: in vivo
[2] = Cmax in C57BL/6 mouse at 30 mg/kg, po by LC-MS/MS analysis; set-up: dose 30 mg/kg, route oral; details: in vivo
[3] = AUC in C57BL/6 mouse at 30 mg/kg, po by LC-MS/MS analysis; details: in vivo
[4] = Terminal half life in C57BL/6 mouse at 30 mg/kg, po by LC-MS/MS analysis; details: in vivo, read-out: beta t1/2 (converted)

Tmax [1]: 12 min | Cmax [2]: 2100 nM | AUC [3]: 2.5 µM·h | half-life [4]: 60 min
SMILES: COc1ccc(C(C)(C)c2cnc(SCCOCc3ccc(C#N)cc3)n2-c2ccc(F)cc2)cc1OC
